“Also recorded” adds a separate entry of the source.
Legend:
tDCs [1] = experiment: IL-10 and IL-12 production of restimulated tDCs in the presence of inhibitors (ELISA); assay type: cell-based, human; settings: restimulation with CC, LPS, polyI:C, CD40L, 24 h
Protocol: (§1) To induce maturation, DC were treated with vaccine grade monophosphoryl lipid A (MPLA) (2 μg/ml, Cayla-InvivoGen) on day 6 or on day 7. On day 7 or on day 8, DC were harvested, washed and functional assays were performed. Control DC (cDC) were cultured without tolerising factors. For restimulation assays, tolDC and cDC were extensively washed and recultured in complete RPMI 1640 medium (Gibco) in the absence of tolerising factors for 24-72 h, with or without lipopolysaccharide (LPS, 1 μg/ml, Sigma-Aldrich), poly I:C (25 μg/ml, Cayla-InvivoGen), CD40L (1000 ng/ml, Enzo) or a mixture of pro-inflammatory cytokines containing IL-1β (10 ng/ml), TNFα (10 ng/ml), IL-6 (10 ng/ml) and IFNγ (100 ng/ml) (all from R&D systems). Supernatant and cells were collected for further analysis. Signaling inhibitors were added 1 h before the start of experiments under the specified stimulation conditions. SB203580 (p38 MAPK inhibitor at 10 μM), SP600125 (JNK/SAPK inhibitor at 20 μM), PD98059 (ERK1/2 inhibitor at 20 μM), Bay 11-7082 (NF-κB inhibitor at 10 μM), Stattic (STAT3 inhibitor at 5 μM) and rapamycin (mTOR inhibitor at 100 nM) were obtained from Calbiochem and dissolved in DMSO.
(§2) Cell supernatants were harvested after 24 hours of DC stimulation and frozen at −80° C. until analysis. IL-10, IL-12p70, IL-6 and TNFα concentrations were determined in cell culture supernatants of activated DCs using Luminex assay (MILLIPLEX™ Human Cytokine/Chemokine Kit, Merck Millipore) and ELISA assay (DuoSet ELISA Kit, R&D systems) according to manufacturer's instructions.
(§3) Immature DCs were obtained from buffy coats of healthy donors as previously described [Palova-Jelinkova L, Rozkova D, Pecharova B, Bartova J, Sediva A, Tlaskalova-Hogenova H, Spisek R, Tuckova L: Gliadin fragments induce phenotypic and functional maturation of human dendritic cells. J Immunol 2005; 175:7038-7045]. […] Medium and cytokines were replenished on day 3. On day 6, DCs were harvested and seeded in 96-well plates (Nunc) at 1×10^6 cells/ml. On day 7, immature DCs were activated with vacci grade MPLA (2 μg/ml, Cayla-InvivoGen) for 24 hrs. To induce tDCs, DCs were treated with Dex on day 3 (1 μM, Medochemie) and Dex and VitD2-paricalcitol (1.5 ng/ml, Zemplar, Abbott Laboratories) on day 6. Control DCs (cDCs) were cultured without tolerising factors. For restimulation assays, tDCs and cDCs were washed and recultured in complete RPMI medium (Gibco) containing 5% human AB serum (Invitrogen) in the absence of tolerising factors for 24 h, with or without LPS (1 μg/ml, Sigma-Aldrich), polyI:C (25 μg/ml, Cayla-InvivoGen), megaCD40L™ (1000 ng/ml, Enzo Life Sciences) or mixture of pro-inflammatory cytokines containing IL-1β, TNF-α, IL-6 (all 10 ng/ml) and IFN-γ (100 ng/ml) (all from R&D systems). Signaling inhibitors were added 1 h before the start of experiments under the specified stimulation conditions. SB203580 (p38 MAPK inhibitor at 10 μM), SP600125 (JNK/SAPK inhibitor at 20 μM), PD98059 (ERK1/2 inhibitor at 20 μM), Bay 11-7082 (NF-κB inhibitor at 10 μM), Stattic (STAT3 inhibitor at 5 μM) and rapamycin (mTOR inhibitor at 100 nM) were obtained from Calbiochem and dissolved in dimethyl sulfoxide. Supernatants and cells were collected for further analysis.
(§4) Cell supernatants were harvested after 24 h of DC stimulation and frozen at −80° C. until analysis. IL-10, IL-12p70, TNF-α and TGF-β concentrations were determined using Luminex assay (MILLIPLEX™ Human Cytokine/Chemokine Kit, Merck Millipore) and ELISA assay (DuoSet ELISA Kit, R&D systems) according to the manufacturer's instructions. Cell supernatants were acidified before measuring TGF-β levels according to the manufacturer's instructions.
lactate, glucose and lactate dehydrogenase measurements: Concentrations of lactate and glucose in DC culture supernatants were measured with Glycolysis Cell-based assay kit (Cayman Chemicals) and Glucose colorimetric assay kit (BioVision), respectively. […]

tDCs [2] = experiment: ILT-3, PD-L1 and CD86 expression on restimulated tDCs in the presence of inhibitors (flow cytometry); assay type: cell-based, human; settings: for CD86 expression in tDCs in the presence of inhibitor / ILT-3 and PD-L1 expression in tDCs in the presence of inhibitor: restimulation 24 h
Protocol: as §1
Cells were stained with fluorochrome-conjugated mAbs for 30 min at 4° C. in PBS, washed and analysed on LSRFortessa cell analyzer (BD Biosciences). Appropriate isotype controls were included. Data were analyzed using FlowJo software (Tree Star). DCs were gated according to the FSC, SSC and CD11c+ parameters for analysis. Dead cells were excluded from the analysis based on DAPI staining. For intracellular cytokine staining, T cells were stimulated with phorbol-12-myristate-13-acetate (PMA) (50 ng/ml, Sigma-Aldrich) plus ionomycin (1 μg/ml, Sigma-Aldrich) for 4-16 hours in the presence of Brefeldin A (5 μg/ml, BioLegend) before cell analysing. After stimulation, cells were washed, incubated in Fixation/Permeabilization Buffer (eBiosciences) for 30 min at 4° C., then washed in Permeabilization Buffer (eBiosciences) and stained with appropriate mAb for 30 min at 4° C.
as §3
Cells (2×10^5/well) were stained with fluorochrome-conjugated mAbs for 30 min at 4° C. in PBS, washed and analysed on LSR Fortessa cell analyzer (BD Biosciences). Appropriate isotype controls were included. Data were analyzed using FlowJo software (Tree Star). […]

allogeneic T cells = experiment: Allostimulatory assay (primary MLR, CFSE dilution); assay type: cell-based, human; settings: compared to tDCs without inhibitor; day 6
Protocol: For primary MLR assays, allogeneic T cells (2×10^5) labelled with 5 μM carboxyfluorescein succinimidyl ester (CFSE, Invitrogen) were incubated with tolDC or cDC (2×10^4) in 96-well, round-bottom plates. T cell proliferation was determined by the sequential dilution of CFSE fluorescence of T cells, as detected by flow cytometry on day 6.
T cells were obtained from PBMC non-adherent fraction. tDCs or cDCs (2×104) were cultured with allogeneic T cells (2×105) in complete RPMI medium (Gibco) containing 5% human AB serum (Invitrogen). IL-2 (20 U/ml, PeproTech) was added on day 2, 5 and 7. For primary mixed lymphocyte reaction (MLR) assays, allogeneic T cells (2×105) labelled with 5 μM carboxyfluorescein succinimidyl ester (CFSE) (Invitrogen) were incubated with tDCs or cDCs (2×104). T cell proliferation was determined by the sequential dilution of CFSE fluorescence of T cells, as detected by flow cytometry on day 6. For detection of IFN-γ, IL-10 and IL-17A production by T cells, 2×10^4 tDCs or cDCs were cultured with 2×10^5 allogeneic T cells. Cytokine production was determined by intracellular staining by flow cytometry on day 6 (IFN-γ) and day 9 (IL-10). IL-17A production from cell culture supernatants was analyzed by ELISA on day 6.

cDCs = experiment: IL-10 and IL-12 production of restimulated cDCs in the presence of inhibitors (ELISA); assay type: cell-based, human; settings: for IL-12 production in cDCs in the presence of inhibitor: after LPS and CC triggering
Protocol: as §1, §2
Immature DCs were obtained from buffy coats of healthy donors as previously described [Palova-Jelinkova L, Rozkova D, Pecharova B, Bartova J, Sediva A, Tlaskalova-Hogenova H, Spisek R, Tuckova L: Gliadin fragments induce phenotypic and functional maturation of human dendritic cells. J Immunol 2005; 175:7038-7045]. […] Medium and cytokines were replenished on day 3. On day 6, DCs were harvested and seeded in 96-well plates (Nunc) at 1×10^6 cells/ml. On day 7, immature DCs were activated with vacci grade MPLA (2 μg/ml, Cayla-InvivoGen) for 24 hrs. To induce tDCs, DCs were treated with Dex on day 3 (1 μM, Medochemie) and Dex and VitD2-paricalcitol (1.5 ng/ml, Zemplar, Abbott Laboratories) on day 6. Control DCs (cDCs) were cultured without tolerising factors. […]
as §4, with “Cell supernatants were acidified before measuring TGF-β levels according to the manufacturer's instructions.” left out

glycolysis = experiment: Metabolic quantification: lactate in DC supernatants; assay type: cell-based, human; settings: pretreatment before restimulation, 24 h
Protocol: lactate, glucose and lactate dehydrogenase measurements: Concentrations of lactate and glucose in DC culture supernatants were measured with Glycolysis Cell-based assay kit (Cayman Chemicals) and Glucose colorimetric assay kit (BioVision), respectively. When indicated, glycolysis was suppressed by treatment with 10 mM 2-deoxyglucose (Sigma) 1 h prior exposition of DCs cultured in Cell Gro into RPMI, LPS, CC, polyI:C or CD40L. LDH activity of the DCs extracts was measured with Lactate dehydrogenase activity assay kit (Sigma).

Structure (SMILES)	IL-10 production in tDCs in the presence of inhibitor (tDCs [1])	PD-L1 expression in the presence of inhibitor (tDCs [2]; after LPS stimulation)	CD86 expression in tDCs in the presence of inhibitor (tDCs [2])	ability of inhibitor-pretreated tDCs to stimulate allogeneic T cell proliferation (allogeneic T cells)	viability of DCs (DCs)	IL-12 production in tDCs in the presence of inhibitor (tDCs [1])	IL-12 production in cDCs in the presence of inhibitor (cDCs)	ILT-3 and PD-L1 expression in tDCs in the presence of inhibitor (tDCs [2])	IL-10 production in cDCs in the presence of inhibitor (cDCs; after LPS restimulation)	lactate generation in Dex/VitD tDCs in the presence of inhibitor (glycolysis)
COc1cccc(-c2cc(=O)c3ccccc3o2)c1N [PD98059]	significantly dependent	down-regulated PD-L1 expression	significantly up-regulated CD86 expression	increased the ability	–	–	–	–	–	–
C[C@H](/C=C/[C@H](C)C(C)(C)O)[C@H]1CC[C@H]2/C(=C/C=C3C[C@@H](O)C[C@H](O)C3)CCC[C@]12C [VitD2, 19-nor-1,25-dihydroxyvitamin D2]	–	–	–	–	did not affect the viability of DCs	–	–	–	–	–
C[C@@H]1C[C@H]2[C@@H]3CCC4=CC(=O)C=C[C@]4(C)[C@@]3(F)[C@@H](O)C[C@]2(C)[C@@]1(O)C(=O)CO [Dex, Dexamethasone]	–	–	–	–	did not affect the viability of DCs	–	–	–	–	–
Cc1ccc(S(=O)(=O)/C=C/C#N)cc1 [Bay 11-7082]	significantly dependent; also recorded: abrogated IL-10 production	–	–	–	–	did not changed IL-12 production; also recorded: did not affect IL-12 production	markedly down-regulated IL-12 production	–	–	–
C[S+]([O-])c1ccc(-c2nc(-c3ccncc3)c(-c3ccc(F)cc3)[nH]2)cc1 (centres unmarked) [SB203580]	significantly dependent	–	–	–	–	did not changed IL-12 production; also recorded: did not affect IL-12 production	markedly down-regulated IL-12 production	down-regulated ILT-3 and PD-L1 expression	–	–
O=[N+]([O-])c1ccc2c(c1)S(=O)(=O)C=C2 [Stattic]	reduced IL-10 production	–	significantly increased CD86 expression	partial restoration	–	unaffected	unaffected	markedly reduced expression	down-regulated IL-10 production	–
O=CC[C@@H](O)[C@H](O)[C@H](O)CO [2-DG, 2-deoxyglucose]	markedly decreased IL-10 production	–	remained unaffected	increased partially	–	remained unaffected	–	failed to up-regulate ILT-3 and PD-L1 molecules	–	significantly prevented lactate generation

Reference: patent US9987307B2, “Tolerogenic dendritic cells, methods of producing the same, and uses thereof” (SOTIO A.S., priority 2014, dated 2018)
